Tests used:
[1] = target: 5-hydroxytryptamine receptor 1A (Homo sapiens, UniProt P08908); assay: GPCRScan assay: inhibition of 5-HT1A; set-up: radioligand conc. used [nm] 0.5 – 1.0, parental cells stable CHO
[2] = target: T1, 5-hydroxytryptamine receptor 1B (Homo sapiens, UniProt P28222); assay: GPCRScan assay: inhibition of 5-HT1B; set-up: radioligand conc. used [nm] 0.6 – 1.5, parental cells stable HEK
[3] = target: T2, 5-hydroxytryptamine receptor 1D (Homo sapiens, UniProt P28221); assay: GPCRScan assay: inhibition of 5-HT1D; set-up: radioligand conc. used [nm] 1.0 – 2.0, parental cells HEKT
T2 sequence (P28221 whole entry): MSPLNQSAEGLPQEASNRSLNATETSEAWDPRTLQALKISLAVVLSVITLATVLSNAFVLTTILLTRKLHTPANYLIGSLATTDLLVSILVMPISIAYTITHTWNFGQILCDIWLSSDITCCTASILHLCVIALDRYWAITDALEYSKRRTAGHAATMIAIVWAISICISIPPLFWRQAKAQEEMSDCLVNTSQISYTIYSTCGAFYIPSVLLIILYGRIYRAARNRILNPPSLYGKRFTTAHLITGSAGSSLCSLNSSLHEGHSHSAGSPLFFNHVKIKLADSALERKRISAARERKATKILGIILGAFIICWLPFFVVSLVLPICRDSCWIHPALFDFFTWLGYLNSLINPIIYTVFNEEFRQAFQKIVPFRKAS

[4] = target: T3, 5-hydroxytryptamine receptor 2A (Homo sapiens, UniProt P28223); assay: GPCRScan assay: inhibition of 5-HT2A; set-up: radioligand conc. used [nm] 1.2 – 2.4, parental cells HEKT
[5] = target: T4, 5-hydroxytryptamine receptor 2B (Homo sapiens, UniProt P41595); assay: GPCRScan assay: inhibition of 5-HT2B; set-up: radioligand conc. used [nm] 1.0 – 2.0, parental cells stable HEK
T4 sequence (P41595 whole entry): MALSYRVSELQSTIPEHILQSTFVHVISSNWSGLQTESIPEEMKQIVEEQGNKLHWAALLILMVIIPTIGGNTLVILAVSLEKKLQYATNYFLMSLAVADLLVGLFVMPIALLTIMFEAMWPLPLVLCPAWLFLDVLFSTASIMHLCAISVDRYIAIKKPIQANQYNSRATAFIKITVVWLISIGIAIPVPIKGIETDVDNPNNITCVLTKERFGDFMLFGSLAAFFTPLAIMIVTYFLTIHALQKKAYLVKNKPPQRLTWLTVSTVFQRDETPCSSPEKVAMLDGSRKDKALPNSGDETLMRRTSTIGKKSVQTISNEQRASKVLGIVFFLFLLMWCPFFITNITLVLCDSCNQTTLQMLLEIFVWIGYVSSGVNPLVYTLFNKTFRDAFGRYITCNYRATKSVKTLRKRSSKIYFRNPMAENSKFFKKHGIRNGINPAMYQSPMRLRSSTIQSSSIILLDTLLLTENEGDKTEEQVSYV

[6] = target: 5-hydroxytryptamine receptor 2C (Homo sapiens, UniProt P28335); assay: GPCRScan assay: inhibition of 5-HT2C; set-up: radioligand conc. used [nm] 1.0 – 2.5, parental cells HEK T
[7] = target: 5-hydroxytryptamine receptor 3A (Homo sapiens, UniProt P46098); assay: GPCRScan assay: inhibition of 5-HT3; set-up: radioligand conc. used [nm] 1.0 – 2.0, parental cells HEKT
5-hydroxytryptamine receptor 3A, sequence (P46098 whole entry): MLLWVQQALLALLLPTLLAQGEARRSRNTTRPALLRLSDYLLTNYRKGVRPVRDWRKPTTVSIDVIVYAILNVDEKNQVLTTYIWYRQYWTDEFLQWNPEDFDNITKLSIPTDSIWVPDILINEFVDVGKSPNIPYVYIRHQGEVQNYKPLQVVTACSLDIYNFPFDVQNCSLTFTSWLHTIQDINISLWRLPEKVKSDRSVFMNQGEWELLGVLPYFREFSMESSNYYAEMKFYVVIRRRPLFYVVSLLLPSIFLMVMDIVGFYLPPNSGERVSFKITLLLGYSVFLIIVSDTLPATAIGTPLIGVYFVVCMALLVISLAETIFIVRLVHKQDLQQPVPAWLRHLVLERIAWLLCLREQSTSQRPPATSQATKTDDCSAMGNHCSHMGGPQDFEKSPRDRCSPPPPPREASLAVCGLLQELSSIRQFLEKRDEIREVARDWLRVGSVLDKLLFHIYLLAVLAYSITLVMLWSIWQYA

[8] = target: T5, 5-hydroxytryptamine receptor 5A (Homo sapiens, UniProt P47898); assay: GPCRScan assay: inhibition of 5-HT5A; set-up: radioligand conc. used [nm] 2.0 - 3.3, parental cells Flp-In CHO
T5 sequence (P47898 whole entry): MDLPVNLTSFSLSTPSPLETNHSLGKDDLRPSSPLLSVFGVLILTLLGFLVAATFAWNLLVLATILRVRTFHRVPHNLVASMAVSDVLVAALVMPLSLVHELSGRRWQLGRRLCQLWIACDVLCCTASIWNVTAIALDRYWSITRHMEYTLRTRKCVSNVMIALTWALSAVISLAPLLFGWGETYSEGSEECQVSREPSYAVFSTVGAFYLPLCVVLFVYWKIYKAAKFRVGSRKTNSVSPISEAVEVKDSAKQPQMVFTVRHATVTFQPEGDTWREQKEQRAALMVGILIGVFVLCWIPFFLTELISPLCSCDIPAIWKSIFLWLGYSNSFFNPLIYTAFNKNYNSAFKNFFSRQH

[9] = target: T6, 5-hydroxytryptamine receptor 6 (Homo sapiens, UniProt P50406); assay: GPCRScan assay: inhibition of 5-HT6; set-up: radioligand conc. used [nm] 2.0 – 4.0, parental cells stable HEK
T6 sequence (P50406 whole entry): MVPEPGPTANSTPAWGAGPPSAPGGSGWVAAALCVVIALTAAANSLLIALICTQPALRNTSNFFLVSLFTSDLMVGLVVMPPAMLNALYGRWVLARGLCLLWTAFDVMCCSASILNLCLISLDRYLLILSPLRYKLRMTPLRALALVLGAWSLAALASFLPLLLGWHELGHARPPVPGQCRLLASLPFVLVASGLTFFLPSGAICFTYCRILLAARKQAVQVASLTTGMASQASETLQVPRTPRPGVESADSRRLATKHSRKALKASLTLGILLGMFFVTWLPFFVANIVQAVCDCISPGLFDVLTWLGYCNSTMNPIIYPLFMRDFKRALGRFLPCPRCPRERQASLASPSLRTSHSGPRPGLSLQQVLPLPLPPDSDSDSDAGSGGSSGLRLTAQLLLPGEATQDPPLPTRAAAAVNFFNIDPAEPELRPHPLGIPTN

[10] = target: T7, 5-hydroxytryptamine receptor 7 (Homo sapiens, UniProt P34969); assay: GPCRScan assay: inhibition of 5-HT7A; set-up: radioligand conc. used [nm] 5.0 – 6.0, parental cells Stable HEK
T7 sequence (P34969 whole entry): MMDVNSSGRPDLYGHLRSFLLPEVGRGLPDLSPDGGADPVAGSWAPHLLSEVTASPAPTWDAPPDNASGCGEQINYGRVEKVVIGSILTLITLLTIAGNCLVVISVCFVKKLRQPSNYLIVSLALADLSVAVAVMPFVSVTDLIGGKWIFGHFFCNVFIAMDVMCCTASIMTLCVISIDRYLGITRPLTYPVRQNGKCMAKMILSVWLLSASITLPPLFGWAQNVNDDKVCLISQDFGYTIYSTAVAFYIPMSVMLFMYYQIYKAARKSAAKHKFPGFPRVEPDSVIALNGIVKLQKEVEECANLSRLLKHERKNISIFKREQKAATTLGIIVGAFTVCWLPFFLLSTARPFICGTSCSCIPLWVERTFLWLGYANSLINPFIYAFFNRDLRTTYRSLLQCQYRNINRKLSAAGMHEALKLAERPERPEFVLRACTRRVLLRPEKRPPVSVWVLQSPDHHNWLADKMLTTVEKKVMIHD

D(1A) dopamine receptor [11] = target: T8, D(1A) dopamine receptor (Homo sapiens, UniProt P21728); assay: GPCRScan assay: inhibition of D1; set-up: radioligand conc. used [nm] 0.6 – 1.3, parental cells HEKT
[12] = target: T9, Sodium-dependent dopamine transporter (Homo sapiens, UniProt Q01959); assay: GPCRScan assay: inhibition of DAT; set-up: radioligand conc. used [nm] 3.6 – 16.0, parental cells stable HEK
T9 sequence (Q01959 whole entry): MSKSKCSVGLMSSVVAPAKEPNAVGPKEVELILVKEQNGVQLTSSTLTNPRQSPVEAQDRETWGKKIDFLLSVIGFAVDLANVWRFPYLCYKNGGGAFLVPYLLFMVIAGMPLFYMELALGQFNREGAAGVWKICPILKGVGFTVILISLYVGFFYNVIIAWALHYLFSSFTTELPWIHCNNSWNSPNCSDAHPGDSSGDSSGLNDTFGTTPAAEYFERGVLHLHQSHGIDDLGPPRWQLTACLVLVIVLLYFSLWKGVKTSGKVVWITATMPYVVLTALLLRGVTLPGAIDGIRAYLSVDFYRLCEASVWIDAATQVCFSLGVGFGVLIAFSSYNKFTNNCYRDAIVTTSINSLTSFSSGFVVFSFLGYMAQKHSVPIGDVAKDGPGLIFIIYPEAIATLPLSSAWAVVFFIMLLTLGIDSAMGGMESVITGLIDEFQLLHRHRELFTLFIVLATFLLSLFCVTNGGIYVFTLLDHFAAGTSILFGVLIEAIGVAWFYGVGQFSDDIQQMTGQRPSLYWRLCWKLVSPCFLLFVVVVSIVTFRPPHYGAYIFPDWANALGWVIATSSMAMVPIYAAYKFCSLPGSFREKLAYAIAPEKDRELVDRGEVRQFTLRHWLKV

[13] = target: T10, Kappa-type opioid receptor (Homo sapiens, UniProt P41145); assay: GPCRScan assay: inhibition of KOR; set-up: radioligand conc. used [nm] 0.6 – 1.2, parental cells stable HEK
T10 sequence (P41145 whole entry): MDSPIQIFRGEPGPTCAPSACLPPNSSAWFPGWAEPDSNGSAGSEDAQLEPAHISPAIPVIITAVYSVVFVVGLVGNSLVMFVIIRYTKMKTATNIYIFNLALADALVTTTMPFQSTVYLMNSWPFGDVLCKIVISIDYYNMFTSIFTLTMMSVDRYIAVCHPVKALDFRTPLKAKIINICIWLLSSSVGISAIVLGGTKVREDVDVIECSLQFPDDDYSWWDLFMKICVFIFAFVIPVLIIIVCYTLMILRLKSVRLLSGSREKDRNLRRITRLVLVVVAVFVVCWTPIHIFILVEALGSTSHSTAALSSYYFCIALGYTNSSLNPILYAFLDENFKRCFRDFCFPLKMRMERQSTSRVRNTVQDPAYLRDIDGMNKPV

Histamine H1 receptor [14] = target: T11, Histamine H1 receptor (Homo sapiens, UniProt P35367); assay: GPCRScan assay: inhibition of H1; set-up: radioligand conc. used [nm] 0.6 – 2.0, parental cells stable HEK
T11 sequence (P35367 whole entry): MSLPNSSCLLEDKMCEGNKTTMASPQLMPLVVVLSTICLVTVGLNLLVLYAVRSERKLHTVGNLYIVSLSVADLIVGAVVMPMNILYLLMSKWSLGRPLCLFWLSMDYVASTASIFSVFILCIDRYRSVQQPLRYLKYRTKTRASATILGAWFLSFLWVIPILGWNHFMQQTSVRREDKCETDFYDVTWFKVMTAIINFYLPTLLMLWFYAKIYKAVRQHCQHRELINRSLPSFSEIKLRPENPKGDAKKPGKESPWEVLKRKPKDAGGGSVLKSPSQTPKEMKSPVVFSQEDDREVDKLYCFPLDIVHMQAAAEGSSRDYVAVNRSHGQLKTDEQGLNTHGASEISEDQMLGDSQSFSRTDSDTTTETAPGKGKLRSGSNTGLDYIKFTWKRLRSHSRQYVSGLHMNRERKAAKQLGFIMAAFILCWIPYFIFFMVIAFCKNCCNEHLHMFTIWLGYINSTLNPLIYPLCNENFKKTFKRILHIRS

Histamine H2 receptor [15] = target: T12, Histamine H2 receptor (Homo sapiens, UniProt P25021); assay: GPCRScan assay: inhibition of H2; set-up: radioligand conc. used [nm] 0.02 – 0.05, parental cells Stable HEK
T12 sequence (P25021 whole entry): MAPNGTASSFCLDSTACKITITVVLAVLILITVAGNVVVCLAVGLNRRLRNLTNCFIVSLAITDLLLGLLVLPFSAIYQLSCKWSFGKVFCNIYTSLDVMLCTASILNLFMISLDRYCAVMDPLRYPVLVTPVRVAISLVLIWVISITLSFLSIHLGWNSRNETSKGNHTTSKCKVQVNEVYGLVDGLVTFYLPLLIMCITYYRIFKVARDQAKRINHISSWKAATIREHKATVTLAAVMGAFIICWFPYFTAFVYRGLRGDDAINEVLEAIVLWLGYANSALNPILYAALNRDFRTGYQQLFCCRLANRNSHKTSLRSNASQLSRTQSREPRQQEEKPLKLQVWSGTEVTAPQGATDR

[16] = target: Alpha-2B adrenergic receptor (Homo sapiens, UniProt P18089); assay: GPCRScan assay: inhibition of Alpha2B; set-up: radioligand conc. used [nm] 1.5 – 2.0, parental cells HEKT
[17] = target: Muscarinic acetylcholine receptor M1 (Homo sapiens, UniProt P11229); assay: GPCRScan assay: inhibition of M1; set-up: radioligand conc. used [nm] 0.3 – 1.2, parental cells stable CHO
[18] = target: Muscarinic acetylcholine receptor M2 (Homo sapiens, UniProt P08172); assay: GPCRScan assay: inhibition of M2; set-up: radioligand conc. used [nm] 0.2 – 1.0, parental cells stable CHO
[19] = target: T13, Sigma intracellular receptor 2 (Homo sapiens, UniProt Q5BJF2); assay: GPCRScan assay: inhibition of Sigma 2; set-up: radioligand conc. used [nm] 5.0, parental cells HEKT
[20] = target: Glutamate [NMDA] receptor (Homo sapiens) (UniProt Q05586+Q12879+Q13224+O15399+O60391+Q14957+Q8TCU5); assay: (§1) GPCRScan assay: inhibition of NMDA; format: protein-complex assay; set-up: radioligand conc. used [nm] 1.4 – 13.0; conditions: Compound concentration 10.0 uM
[21] = target: Glutamate [NMDA] receptor; assay: as §1; format: protein-complex assay, Homo sapiens; set-up: radioligand conc. used [nm] 1.4 – 13.0
[22] = target: 5-hydroxytryptamine receptor 4 (Homo sapiens, UniProt Q13639); assay: GPCRScan assay: inhibition of 5-HT4; set-up: radioligand conc. used [nm] 0.5 – 2.0, parental cells HEK T
[23] = target: 5-hydroxytryptamine receptor 1A (Homo sapiens) (UniProt P08908); conditions: Compound concentration 10.0 uM
[24] = target: T1, 5-hydroxytryptamine receptor 1B; conditions: Compound concentration 10.0 uM
[25] = target: T2, 5-hydroxytryptamine receptor 1D; conditions: Compound concentration 10.0 uM
[26] = target: T3, 5-hydroxytryptamine receptor 2A; conditions: Compound concentration 10.0 uM
[27] = target: T4, 5-hydroxytryptamine receptor 2B; conditions: Compound concentration 10.0 uM
[28] = target: 5-hydroxytryptamine receptor 2C (Homo sapiens) (UniProt P28335); conditions: Compound concentration 10.0 uM
[29] = target: 5-hydroxytryptamine receptor 3A (Homo sapiens) (UniProt P46098); conditions: Compound concentration 10.0 uM
5-hydroxytryptamine receptor 3A (Homo sapiens), sequence (P46098 whole entry): as the sequence (P46098 whole entry) above

[30] = target: T5, 5-hydroxytryptamine receptor 5A; conditions: Compound concentration 10.0 uM
[31] = target: T6, 5-hydroxytryptamine receptor 6; conditions: Compound concentration 10.0 uM
[32] = target: T7, 5-hydroxytryptamine receptor 7; conditions: Compound concentration 10.0 uM
D(1A) dopamine receptor [33] = target: T8, D(1A) dopamine receptor; conditions: Compound concentration 10.0 uM
[34] = target: D(2) dopamine receptor (Homo sapiens) (UniProt P14416); conditions: Compound concentration 10.0 uM
[35] = target: D(3) dopamine receptor (Homo sapiens) (UniProt P35462); conditions: Compound concentration 10.0 uM
[36] = target: D(1B) dopamine receptor (Homo sapiens) (UniProt P21918); conditions: Compound concentration 10.0 uM
[37] = target: Sodium-dependent serotonin transporter (Homo sapiens) (UniProt P31645); conditions: Compound concentration 10.0 uM
[38] = target: Sodium-dependent noradrenaline transporter (Homo sapiens) (UniProt P23975); conditions: Compound concentration 10.0 uM
[39] = target: T9, Sodium-dependent dopamine transporter; conditions: Compound concentration 10.0 uM
[40] = target: Mu-type opioid receptor (Homo sapiens) (UniProt P35372); conditions: Compound concentration 10.0 uM
[41] = target: Delta-type opioid receptor (Homo sapiens) (UniProt P41143); conditions: Compound concentration 10.0 uM
[42] = target: T10, Kappa-type opioid receptor; conditions: Compound concentration 10.0 uM
[43] = target: T14, GABA-A receptor; anion channel (Rattus norvegicus) (UniProt O09028+P15431+P18506+P18508+P19969+P20236+P23574+P23576+P28471+P28473+P30191+P62813+P63079+P63138+Q91ZM7+Q9ES14); conditions: Compound concentration 10.0 uM
Histamine H1 receptor [44] = target: T11, Histamine H1 receptor; conditions: Compound concentration 10.0 uM
Histamine H2 receptor [45] = target: T12, Histamine H2 receptor; conditions: Compound concentration 10.0 uM
[46] = target: Histamine H4 receptor (Homo sapiens) (UniProt Q9H3N8); conditions: Compound concentration 10.0 uM
[47] = target: Alpha-1A adrenergic receptor (Homo sapiens) (UniProt P35348); conditions: Compound concentration 10.0 uM
[48] = target: Alpha-1B adrenergic receptor (Homo sapiens) (UniProt P35368); conditions: Compound concentration 10.0 uM
[49] = target: Alpha-2A adrenergic receptor (Homo sapiens) (UniProt P08913); conditions: Compound concentration 10.0 uM
[50] = target: Alpha-2B adrenergic receptor (Homo sapiens) (UniProt P18089); conditions: Compound concentration 10.0 uM
[51] = target: Alpha-2C adrenergic receptor (Homo sapiens) (UniProt P18825); conditions: Compound concentration 10.0 uM
[52] = target: Beta-1 adrenergic receptor (Homo sapiens) (UniProt P08588); conditions: Compound concentration 10.0 uM
[53] = target: Beta-2 adrenergic receptor (Homo sapiens) (UniProt P07550); conditions: Compound concentration 10.0 uM
[54] = target: Muscarinic acetylcholine receptor M1 (Homo sapiens) (UniProt P11229); conditions: Compound concentration 10.0 uM
[55] = target: Muscarinic acetylcholine receptor M2 (Homo sapiens) (UniProt P08172); conditions: Compound concentration 10.0 uM
[56] = target: Muscarinic acetylcholine receptor M3 (Homo sapiens) (UniProt P20309); conditions: Compound concentration 10.0 uM
[57] = target: Muscarinic acetylcholine receptor M5 (Homo sapiens) (UniProt P08912); conditions: Compound concentration 10.0 uM
[58] = target: Beta-3 adrenergic receptor (Homo sapiens) (UniProt P13945); conditions: Compound concentration 10.0 uM
[59] = target: T14, GABA-A receptor; anion channel (Rattus norvegicus); conditions: Compound concentration 10.0 uM; remark: listed apart in the source
Rattus norvegicus = species: Rattus norvegicus; conditions: Compound concentration 10.0 uM
[60] = target: Alpha-1D adrenergic receptor (Homo sapiens) (UniProt P25100); conditions: Compound concentration 10.0 uM
[61] = target: T13, Sigma intracellular receptor 2; conditions: Compound concentration 10.0 uM
[62] = target: Sigma non-opioid intracellular receptor 1 (Homo sapiens) (UniProt Q99720); conditions: Compound concentration 10.0 uM

T1 sequence (P28222 whole entry): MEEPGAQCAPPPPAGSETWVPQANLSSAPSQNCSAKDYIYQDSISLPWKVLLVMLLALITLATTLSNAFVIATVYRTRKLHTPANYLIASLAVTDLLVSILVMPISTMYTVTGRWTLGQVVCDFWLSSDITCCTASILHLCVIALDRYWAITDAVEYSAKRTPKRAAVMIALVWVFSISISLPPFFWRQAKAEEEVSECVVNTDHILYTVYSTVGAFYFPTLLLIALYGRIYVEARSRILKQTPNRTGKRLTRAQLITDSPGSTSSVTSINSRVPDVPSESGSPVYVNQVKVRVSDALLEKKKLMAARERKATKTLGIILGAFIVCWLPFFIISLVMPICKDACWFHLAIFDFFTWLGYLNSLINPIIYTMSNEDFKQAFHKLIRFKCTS

Ki ([1]; read-out: Ki): 0.223 µM
Ki ([1]; read-out: pKi (converted)): 0.214 µM
Ki ([2]; read-out: Ki): 3.41 µM
Ki ([2]; read-out: pKi (converted)): 3.31 µM
Ki ([3]; read-out: Ki): 3.25 µM
Ki ([3]; read-out: pKi (converted)): 3.14 µM
Ki [4]: 3.28 µM
Ki ([5]; read-out: Ki): 0.237 µM
Ki ([5]; read-out: pKi (converted)): 0.224 µM
Ki [6]: 5.55 µM
Ki ([7]; read-out: Ki): 3.99 µM
Ki ([7]; read-out: pKi (converted)): 3.72 µM
Ki ([8]; read-out: Ki): 5.82 µM
Ki ([8]; read-out: pKi (converted)): 5.62 µM
Ki [9]: 6.68 µM
Ki [10]: 2.08 µM
Ki (D(1A) dopamine receptor [11]): 3.42 µM
Ki ([12]; read-out: Ki): 2.12 µM
Ki ([12]; read-out: pKi (converted)): 1.62 µM
Ki ([13]; read-out: Ki): 2.31 µM
Ki ([13]; read-out: pKi (converted)): 2.19 µM
Ki (Histamine H1 receptor [14]; read-out: Ki): 4.55 µM
Ki (Histamine H1 receptor [14]; read-out: pKi (converted)): 4.68 µM
Ki (Histamine H2 receptor [15]; read-out: Ki): 1.91 µM
Ki (Histamine H2 receptor [15]; read-out: pKi (converted)): 1.78 µM
Ki ([16]; read-out: Ki): 3.04 µM
Ki ([16]; read-out: pKi (converted)): 2.57 µM
Ki [17]: 4.05 µM
Ki [18]: 4.43 µM
Ki [19]: 1.89 µM
inhibition [20]: 0%
Ki [21]: 1 µM
Ki [22]: 6.69 µM
inhibition ([22]; Compound concentration 10.0 uM): 0%
inhibition [23]: 72.1%
inhibition [24]: 17.7%
inhibition [25]: 58.6%
inhibition [26]: 19.9%
inhibition [27]: 80%
inhibition [28]: 31.7%
inhibition [29]: 55%
inhibition [30]: 28.8%
inhibition [31]: 23%
inhibition [32]: 60%
inhibition (D(1A) dopamine receptor [33]): 3.15%
inhibition [34]: 8.56%
inhibition [35]: 5.75%
inhibition [36]: 16.7%
inhibition [37]: 35.4%
inhibition [38]: 26.2%
inhibition [39]: 52.1%
inhibition [40]: 39.7%
inhibition [41]: 22.5%
inhibition [42]: 48.4%
inhibition [43]: 1.68%
inhibition (Histamine H1 receptor [44]): 25.5%
inhibition (Histamine H2 receptor [45]): 24.8%
inhibition [46]: 0.51%
inhibition [47]: 23%
inhibition [48]: 16.5%
inhibition [49]: 17.6%
inhibition [50]: 21.8%
inhibition [51]: 44.7%
inhibition [52]: 18.8%
inhibition [53]: 33.3%
inhibition [54]: 12.4%
inhibition [55]: 22%
inhibition [56]: -3.52%
inhibition [57]: 15.5%
inhibition [58]: 11.6%
inhibition [59]: 4.11%
inhibition (Rattus norvegicus): 8.58%
inhibition [60]: 25.4%
inhibition [61]: 50.3%
inhibition [62]: 3.82%
Structure (SMILES): Cc1ccc2nc(CNCCCOc3ccccc3)cc(O)c2c1 [UCSF924]
